Results taken from paper PMC4448990 (Pharmacology Research & Perspectives, 2015).

Legend:
[1] = target: Kinase, protein, SGK1 (h) (Homo sapiens, UniProt O00141); test: in vitro selectivity profile; assay type: biochemical
[2] = test system: Transferase, choline acetyl; test: in vitro selectivity profile; assay type: biochemical; settings: eslicarbazepine 400 μmol/L
[3] = target: Protease, caspase, CASP-1 (h) (Homo sapiens, UniProt P29466); test: in vitro selectivity profile; assay type: biochemical
[4] = test system: Potassium channel, ATP-sensitive; test: in vitro selectivity profile; assay type: binding; settings: eslicarbazepine 400 μmol/L
hCav2.1 calcium channels = hCav2.1 calcium channels (Homo sapiens, UniProt O00555); test: whole-cell patch clamp, hCav2.1 in CHO cells; assay type: cell-based; settings: IC50, hCav2.1 calcium peak currents, 0.3–1000 μmol/L, holding potential −80 mV
Muscarinic, M5 (h) = Muscarinic, M5 (h) (Homo sapiens, UniProt P08912); test: in vitro selectivity profile; assay type: binding
Cannabinoid, CB1 (h) = Cannabinoid, CB1 (h) (Homo sapiens, UniProt P21554); test: in vitro selectivity profile; assay type: binding
[5] = target: Esterase, acetylcholine (h) (Homo sapiens, UniProt P22303); test: in vitro selectivity profile; assay type: biochemical
Adenosine, A1 (h) = Adenosine, A1 (h) (Homo sapiens, UniProt P30542); test: in vitro selectivity profile; assay type: binding
Neurotensin (h) = Neurotensin (h) (Homo sapiens, UniProt P30989); test: in vitro selectivity profile; assay type: binding
Glutamate, kainate site = test: in vitro selectivity profile; assay type: binding; settings: eslicarbazepine 400 μmol/L
Serotonin, 5HT2A (h) = Serotonin, 5HT2A (h) (Homo sapiens, UniProt P28223); test: in vitro selectivity profile; assay type: binding
[6] = cited from earlier work
[7] = target: human GRIN1/GRIN2B NMDA receptor (Homo sapiens, UniProt Q05586+Q13224); test: submaximal NMDA-receptor-mediated currents in HEK cells; assay type: cell-based
Glutamate, mGluR1 = test: in vitro selectivity profile; assay type: binding; settings: eslicarbazepine 400 μmol/L
Kinase, protein, Fyn (h) = Kinase, protein, Fyn (h) (Homo sapiens, UniProt P06241); test: in vitro selectivity profile; assay type: biochemical
[8] = test system: Serotonin, 5HT1, nonselective; test: in vitro selectivity profile; assay type: binding; settings: eslicarbazepine 400 μmol/L
[9] = target: Kinase, protein, PKCb2 (h) (Homo sapiens, UniProt P05771); test: in vitro selectivity profile; assay type: biochemical
[10] = test system: Cholecystokinin, CCK2 (CCKB); test: in vitro selectivity profile; assay type: binding; settings: eslicarbazepine 400 μmol/L
[11] = test system: GABA A, BDZ, alpha 5 site; test: in vitro selectivity profile; assay type: binding; settings: eslicarbazepine 400 μmol/L
P-glycoprotein = settings: ref Fortuna et al. [2012]; cited from earlier work
[12] = target: Kinase, protein, ROCK2 (h) (Homo sapiens, UniProt O75116); test: in vitro selectivity profile; assay type: biochemical
Opioid, delta 2 (h) = Opioid, delta 2 (h) (Homo sapiens, UniProt P41143); test: in vitro selectivity profile; assay type: binding
[13] = target: Anhydrase, carbonic, isozyme I (h) (Homo sapiens, UniProt P00915); test: in vitro selectivity profile; assay type: biochemical
Serotonin, 5HT2C = test: in vitro selectivity profile; assay type: binding; settings: eslicarbazepine 400 μmol/L
Opioid, Mu (h) = Opioid, Mu (h) (Homo sapiens, UniProt P35372); test: in vitro selectivity profile; assay type: binding
Adrenergic, alpha2A (h) = Adrenergic, alpha2A (h) (Homo sapiens, UniProt P08913); test: in vitro selectivity profile; assay type: binding
[14] = target: human α2β2γ2 GABAA receptors (Homo sapiens, UniProt P18507+P47869+P47870); test: submaximal GABA currents in Ltk cells; assay type: cell-based
Serotonin, 5HT1B = test: in vitro selectivity profile; assay type: binding; settings: eslicarbazepine 400 μmol/L
[15] = test system: Somatostatin, nonselective; test: in vitro selectivity profile; assay type: binding; settings: eslicarbazepine 400 μmol/L
Dopamine, D3 = test: in vitro selectivity profile; assay type: binding; settings: eslicarbazepine 400 μmol/L
GABA-B = test: in vitro selectivity profile; assay type: binding; settings: eslicarbazepine 400 μmol/L
[16] = target: Kinase, protein, MAPK1 (ERK2, p42mapk) (h) (Homo sapiens, UniProt P28482); test: in vitro selectivity profile; assay type: biochemical
[17] = test system: Decarboxylase, glutamic acid; test: in vitro selectivity profile; assay type: biochemical; settings: eslicarbazepine 400 μmol/L
[18] = target: Protease, caspase, CASP-3 (h) (Homo sapiens, UniProt P42574); test: in vitro selectivity profile; assay type: biochemical
Kinase, protein, PKA (h) = Kinase, protein, PKA (h) (Homo sapiens, UniProt P17612); test: in vitro selectivity profile; assay type: biochemical
[19] = target: Kinase, protein, CK1d (CSNK1D) (h) (Homo sapiens, UniProt P48730); test: in vitro selectivity profile; assay type: biochemical
[20] = target: Protease, caspase, CASP-10 (h) (Homo sapiens, UniProt Q92851); test: in vitro selectivity profile; assay type: biochemical
Muscarinic, M4 (h) = Muscarinic, M4 (h) (Homo sapiens, UniProt P08173); test: in vitro selectivity profile; assay type: binding

Sequence of human α2β2γ2 GABAA receptors (P47869 29-451): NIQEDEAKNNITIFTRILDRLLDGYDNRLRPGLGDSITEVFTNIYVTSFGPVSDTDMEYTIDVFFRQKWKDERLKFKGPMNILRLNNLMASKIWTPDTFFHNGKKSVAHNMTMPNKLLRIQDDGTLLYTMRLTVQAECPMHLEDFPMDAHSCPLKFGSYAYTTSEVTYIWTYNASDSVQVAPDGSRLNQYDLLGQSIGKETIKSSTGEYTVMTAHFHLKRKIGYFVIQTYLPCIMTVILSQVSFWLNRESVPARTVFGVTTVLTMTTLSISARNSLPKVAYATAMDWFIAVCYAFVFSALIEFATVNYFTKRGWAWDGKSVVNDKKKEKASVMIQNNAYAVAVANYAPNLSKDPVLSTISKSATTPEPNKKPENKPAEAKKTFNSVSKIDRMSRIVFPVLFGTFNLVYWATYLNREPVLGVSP
Sequence of human α2β2γ2 GABAA receptors (P47870 25-512 limits assumed): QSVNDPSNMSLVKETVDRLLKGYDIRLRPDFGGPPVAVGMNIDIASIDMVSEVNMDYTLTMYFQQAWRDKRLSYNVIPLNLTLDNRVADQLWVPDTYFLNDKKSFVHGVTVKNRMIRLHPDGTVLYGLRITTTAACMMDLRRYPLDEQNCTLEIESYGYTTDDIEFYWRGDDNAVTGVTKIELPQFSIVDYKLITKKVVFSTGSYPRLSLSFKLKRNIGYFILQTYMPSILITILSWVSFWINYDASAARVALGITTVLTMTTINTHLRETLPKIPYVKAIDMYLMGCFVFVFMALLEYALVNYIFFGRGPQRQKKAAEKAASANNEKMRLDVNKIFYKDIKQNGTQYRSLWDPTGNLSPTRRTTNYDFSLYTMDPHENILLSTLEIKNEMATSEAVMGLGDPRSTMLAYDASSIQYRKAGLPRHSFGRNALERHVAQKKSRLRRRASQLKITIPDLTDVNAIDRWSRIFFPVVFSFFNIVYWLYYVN
Sequence of human α2β2γ2 GABAA receptors (P18507 40-475): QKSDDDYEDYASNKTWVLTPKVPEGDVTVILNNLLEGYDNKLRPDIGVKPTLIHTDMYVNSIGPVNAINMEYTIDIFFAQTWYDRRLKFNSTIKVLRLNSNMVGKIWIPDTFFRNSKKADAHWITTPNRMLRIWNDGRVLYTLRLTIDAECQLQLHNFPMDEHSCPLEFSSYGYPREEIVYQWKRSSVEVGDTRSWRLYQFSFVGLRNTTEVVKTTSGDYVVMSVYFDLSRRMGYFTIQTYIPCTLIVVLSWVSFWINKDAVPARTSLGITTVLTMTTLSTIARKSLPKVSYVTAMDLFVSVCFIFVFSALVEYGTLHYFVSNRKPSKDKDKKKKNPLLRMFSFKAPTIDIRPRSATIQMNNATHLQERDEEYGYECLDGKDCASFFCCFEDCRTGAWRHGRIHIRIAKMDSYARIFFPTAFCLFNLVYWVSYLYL
Sequence of Serotonin, 5HT2A (h) (P28223 whole entry): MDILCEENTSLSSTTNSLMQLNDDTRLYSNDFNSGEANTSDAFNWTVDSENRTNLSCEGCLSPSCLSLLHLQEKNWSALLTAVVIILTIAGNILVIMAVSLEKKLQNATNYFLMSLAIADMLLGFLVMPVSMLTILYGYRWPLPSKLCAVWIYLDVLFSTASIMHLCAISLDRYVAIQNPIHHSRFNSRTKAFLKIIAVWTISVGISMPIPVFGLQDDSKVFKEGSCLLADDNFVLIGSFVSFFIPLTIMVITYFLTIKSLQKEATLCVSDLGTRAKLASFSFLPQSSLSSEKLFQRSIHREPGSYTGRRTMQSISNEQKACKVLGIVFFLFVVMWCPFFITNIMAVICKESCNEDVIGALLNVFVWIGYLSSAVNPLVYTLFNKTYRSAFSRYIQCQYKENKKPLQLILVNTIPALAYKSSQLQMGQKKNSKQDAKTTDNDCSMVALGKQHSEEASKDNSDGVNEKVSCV
Sequence of Cannabinoid, CB1 (h) (P21554 whole entry): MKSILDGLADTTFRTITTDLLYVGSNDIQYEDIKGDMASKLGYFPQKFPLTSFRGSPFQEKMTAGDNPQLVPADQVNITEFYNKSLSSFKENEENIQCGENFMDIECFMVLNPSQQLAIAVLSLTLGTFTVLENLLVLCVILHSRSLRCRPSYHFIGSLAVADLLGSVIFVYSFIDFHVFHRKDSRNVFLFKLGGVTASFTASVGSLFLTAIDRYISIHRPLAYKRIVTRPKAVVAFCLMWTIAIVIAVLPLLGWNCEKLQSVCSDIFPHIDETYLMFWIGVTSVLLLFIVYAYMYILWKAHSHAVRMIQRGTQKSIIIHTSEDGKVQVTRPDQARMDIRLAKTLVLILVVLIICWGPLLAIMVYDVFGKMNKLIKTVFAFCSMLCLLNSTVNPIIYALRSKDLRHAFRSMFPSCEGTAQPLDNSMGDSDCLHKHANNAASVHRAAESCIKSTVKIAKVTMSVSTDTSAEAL
Sequence of Kinase, protein, Fyn (h) (P06241 whole entry): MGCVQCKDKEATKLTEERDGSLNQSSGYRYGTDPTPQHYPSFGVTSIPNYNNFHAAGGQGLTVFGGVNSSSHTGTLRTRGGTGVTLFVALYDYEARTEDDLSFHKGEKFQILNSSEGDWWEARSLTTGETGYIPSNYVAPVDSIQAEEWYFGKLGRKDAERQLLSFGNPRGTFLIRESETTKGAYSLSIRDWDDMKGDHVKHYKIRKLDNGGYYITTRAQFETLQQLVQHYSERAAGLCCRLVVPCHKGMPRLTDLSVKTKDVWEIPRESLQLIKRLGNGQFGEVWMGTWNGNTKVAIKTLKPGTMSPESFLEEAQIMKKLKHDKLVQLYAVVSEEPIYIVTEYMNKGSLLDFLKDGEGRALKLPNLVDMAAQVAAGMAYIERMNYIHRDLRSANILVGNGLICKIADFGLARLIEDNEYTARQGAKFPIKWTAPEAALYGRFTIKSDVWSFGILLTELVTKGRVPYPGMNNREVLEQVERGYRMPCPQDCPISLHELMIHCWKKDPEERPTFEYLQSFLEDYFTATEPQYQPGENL
Sequence of Protease, caspase, CASP-10 (h) (Q92851 220-415 limits assumed): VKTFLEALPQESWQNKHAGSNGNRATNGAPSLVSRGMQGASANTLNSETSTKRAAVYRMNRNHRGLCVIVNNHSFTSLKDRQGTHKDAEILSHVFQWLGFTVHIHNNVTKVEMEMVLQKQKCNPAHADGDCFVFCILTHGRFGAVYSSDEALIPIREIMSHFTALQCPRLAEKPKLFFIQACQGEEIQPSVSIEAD
Sequence of Protease, caspase, CASP-10 (h) (Q92851 416-521 limits assumed): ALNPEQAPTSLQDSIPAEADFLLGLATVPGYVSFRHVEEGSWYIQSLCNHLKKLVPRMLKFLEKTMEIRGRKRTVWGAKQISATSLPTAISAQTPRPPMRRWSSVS
Sequence of Neurotensin (h) (P30989 whole entry): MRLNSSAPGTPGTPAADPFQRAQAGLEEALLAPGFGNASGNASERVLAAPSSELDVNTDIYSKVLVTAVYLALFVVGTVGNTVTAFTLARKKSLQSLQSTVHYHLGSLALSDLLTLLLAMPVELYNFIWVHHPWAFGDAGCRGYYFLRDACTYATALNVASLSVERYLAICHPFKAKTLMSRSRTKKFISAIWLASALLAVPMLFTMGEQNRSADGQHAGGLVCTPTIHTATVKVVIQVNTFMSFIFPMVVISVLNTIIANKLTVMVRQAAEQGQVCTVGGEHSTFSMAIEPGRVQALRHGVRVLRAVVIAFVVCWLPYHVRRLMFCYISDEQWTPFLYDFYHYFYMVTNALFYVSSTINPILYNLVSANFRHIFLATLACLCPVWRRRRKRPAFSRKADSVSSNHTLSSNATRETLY
Sequence of Esterase, acetylcholine (h) (P22303 32-614): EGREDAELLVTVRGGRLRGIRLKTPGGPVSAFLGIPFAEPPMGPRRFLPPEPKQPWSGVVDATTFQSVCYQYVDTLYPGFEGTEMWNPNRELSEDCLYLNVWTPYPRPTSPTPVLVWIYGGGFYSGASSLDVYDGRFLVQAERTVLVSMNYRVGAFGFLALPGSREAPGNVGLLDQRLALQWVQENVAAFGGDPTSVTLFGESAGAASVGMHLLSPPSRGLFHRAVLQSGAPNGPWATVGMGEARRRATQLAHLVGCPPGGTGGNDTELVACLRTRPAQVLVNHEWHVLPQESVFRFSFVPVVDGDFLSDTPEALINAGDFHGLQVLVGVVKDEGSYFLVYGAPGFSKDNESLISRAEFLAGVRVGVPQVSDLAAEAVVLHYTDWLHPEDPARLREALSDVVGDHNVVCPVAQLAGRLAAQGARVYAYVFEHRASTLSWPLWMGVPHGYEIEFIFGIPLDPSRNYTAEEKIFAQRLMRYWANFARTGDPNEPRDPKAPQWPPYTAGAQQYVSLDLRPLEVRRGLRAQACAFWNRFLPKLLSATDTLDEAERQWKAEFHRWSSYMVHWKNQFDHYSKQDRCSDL
Sequence of Opioid, delta 2 (h) (P41143 whole entry): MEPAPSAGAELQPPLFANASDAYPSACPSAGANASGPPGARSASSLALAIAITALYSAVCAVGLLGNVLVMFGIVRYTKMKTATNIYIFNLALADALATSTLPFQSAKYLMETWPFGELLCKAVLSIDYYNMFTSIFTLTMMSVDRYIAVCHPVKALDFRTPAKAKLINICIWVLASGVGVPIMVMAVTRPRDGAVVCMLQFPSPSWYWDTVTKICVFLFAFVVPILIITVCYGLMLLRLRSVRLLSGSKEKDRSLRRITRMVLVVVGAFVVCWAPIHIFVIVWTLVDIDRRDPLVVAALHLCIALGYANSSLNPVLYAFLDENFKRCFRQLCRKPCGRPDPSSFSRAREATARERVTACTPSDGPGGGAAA
Sequence of Kinase, protein, MAPK1 (ERK2, p42mapk) (h) (P28482 whole entry): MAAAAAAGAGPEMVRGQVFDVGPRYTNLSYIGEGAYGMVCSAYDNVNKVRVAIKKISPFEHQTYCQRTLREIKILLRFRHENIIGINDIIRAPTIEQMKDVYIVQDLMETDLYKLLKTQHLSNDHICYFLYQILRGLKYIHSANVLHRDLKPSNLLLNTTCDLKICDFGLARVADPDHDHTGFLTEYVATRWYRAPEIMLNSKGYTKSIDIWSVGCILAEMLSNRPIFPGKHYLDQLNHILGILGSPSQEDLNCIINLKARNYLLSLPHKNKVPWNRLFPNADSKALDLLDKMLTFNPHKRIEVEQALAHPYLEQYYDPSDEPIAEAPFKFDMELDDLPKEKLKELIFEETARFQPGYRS

In the case of NC(=O)N1c2ccccc2C[C@H](O)c2ccccc21 [eslicarbazepine], the inhibition at 400 µM [1] is reported as 5.7%, the “% inhibition” value [2] is reported as 0.0% and the inhibition at 400 µM [3] is reported as 0%. For the same compound, the “% inhibition” value [4] was 6.78%, the IC50 (hCav2.1 calcium channels) was 7.84 mM and the inhibition at 400 µM (Muscarinic, M5 (h)) was 16%. The inhibition at 400 µM (Cannabinoid, CB1 (h)) was 20.4%, the inhibition at 400 µM [5] was 0% and the inhibition at 400 µM (Adenosine, A1 (h)) was 32.3%. For the same compound, the inhibition at 400 µM (Neurotensin (h)) was 4.94%, the “% inhibition” value (Glutamate, kainate site) was 1.56% and the inhibition at 400 µM (Serotonin, 5HT2A (h)) was 19.2%. For the same compound, the “CSF Cmax eslicarbazepine levels” value ([6]; 1200 mg QD oral ESL, ref Nunes et al. [2013]) was 30 µM, the “share of circulating active moieties after oral ESL” value ([6]; humans, ref Almeida and Soares-da-Silva [2007]) was ~95% and the “peak plasma concentrations of eslicarbazepine” value ([6]; oral ESL 1200 mg QD, ref Perucca et al. [2011]) was 90 µmol/L. For the same compound, the IC50 [7] was 1.23 mM, the “% inhibition” value (Glutamate, mGluR1) was 1.82% and the inhibition at 400 µM (Kinase, protein, Fyn (h)) was 3.58%. The “% inhibition” value [8] was 11.43%, the inhibition at 400 µM [9] was 0% and the “% inhibition” value [10] was 32.83%. The “% inhibition” value [11] was 23.75%, the “intestinal transport M–S versus S–M and sensitivity to verapamil” value (P-glycoprotein) was “of the same magnitude and insensitive to the P-glycoprotein inhibitor verapamil” and the inhibition at 400 µM [12] was 8.54%. The inhibition at 400 µM (Opioid, delta 2 (h)) was 7.91%, the inhibition at 400 µM [13] was 27.7% and the “% inhibition” value (Serotonin, 5HT2C) was 3.67%. The inhibition at 400 µM (Opioid, Mu (h)) was 0%, the inhibition at 400 µM (Adrenergic, alpha2A (h)) was 15.6% and the “GABA inward current stimulation, α2β2γ2, Mean ± SEM” value ([14]; 50 μmol/L) was 91.6 ± 2.7. The “GABA inward current stimulation, α2β2γ2, Mean ± SEM” value ([14]; 100 μmol/L) was 97.0 ± 2.7, the “GABA inward current stimulation, α2β2γ2, Mean ± SEM” value ([14]; 250 μmol/L) was 88.6 ± 3.2 and the “effect on submaximal α2β2γ2 GABA currents” value ([14]; 250 μmol/L) was “slight decrease”. For the same compound, the “GABA inward current stimulation, α2β2γ2, Mean ± SEM” value ([14]; 500 μmol/L) was 89.8 ± 4.0, the “effect on submaximal α2β2γ2 GABA currents” value ([14]; 50–500 μmol/L, exception at 250 μmol/L) was “did not significantly change submaximal GABA currents” and the “% inhibition” value (Serotonin, 5HT1B) was 2.1%. For the same compound, the “% inhibition” value [15] was 0.0%, the “% inhibition” value (Dopamine, D3) was 0.0% and the “% inhibition” value (GABA-B) was 11.72%. For the same compound, the inhibition at 400 µM [16] was 0%, the “% inhibition” value [17] was 0.0% and the inhibition at 400 µM [18] was 0%. It also gave an inhibition at 400 µM (Kinase, protein, PKA (h)) of 3.67%, an inhibition at 400 µM [19] of 5.18% and an inhibition at 400 µM [20] of 0%. For the same compound, the inhibition at 400 µM (Muscarinic, M4 (h)) was 6.08%.
